Assay results: patent US20120265121A1, “PHTHALOCYANINE-BASED ANTIFUNGAL AGENTS” (CASE WESTERN RESERVE UNIVERSITY, priority 2011, published 2012)

How the values were obtained:
[1] = system: C. albicans (strain SC-5134); assay: FITC-labeled Annexin V staining of protoplasts (phosphatidylserine externalization); format: cell-based, Candida albicans; conditions: positive controls: 20 mM H2O2 or 60 μM acetic acid, 4 hr
Procedure: Cells were then incubated for 4 hr before staining with FITC-labeled Annexin V. FIG. 4(a) provides confocal images of FITC-labeling of cells that had been treated with H2O2 or Pc 4-PDT. Scale bar, 20 μm. FIG. 4(b) provides a bar graph showing the results. For each experiment over 50-100 protoplasts cells were counted per sample. […] Cells were counted by eye using a Zeiss AxiovertTM S100 inverted epifluorescence microscope. Values represent the mean±S.E. from at least three independent experiments. […] Apoptosis Analyses: (A) FITC-labeled Annexin V staining-To assess the externalization of phosphatidylserine, protoplasts of C. albicans were stained with FITC-labeled Annexin V using the Annexin V-FLUOS staining kit (Roche, Germany) with minor modifications. Madeo et al., J Cell Biol 139:729-734 (1997); Park et al., Biochem Biophys Res Commun 394:170-172 (2010). Briefly, control and treated cells were washed three times with 1× PBS before incubating at 37° C. for 30 min in a protoplasting solution (50 mM KH2PO4, 5 mM EDTA and 50 mM DTT). Then cells were digested at 37° C. for 45 min in an enzyme solution (50 mM K2HPO4, 40 mM 2-mercaptoethanol, 3 μg/mL Chitinase, 1.8 μg/mL […], 0.15 mg/mL Zymolyase and 2.4 M sorbitol). 1× PBS was added to each sample and incubated for 30 min at room temperature in all experiments. Protoplasts were then incubated with 100 μL of Annexin V-FLUOS labeling solution for 15 min at 25° C. FITC-labeled Annexin V fluorescence was detected by both widefield (Leica DMI6000B microscope; Leica Microsystems, Inc., Bannockburn, Ill., USA) and confocal fluorescence microscopy.

[2] = system: C. albicans (strain SC-5134); assay: Chromatin condensation by confocal microscopy; format: cell-based, Candida albicans; conditions: highest dose of Pc 4-PDT or peroxide, 24 hr after treatment
Procedure: Confocal Microscopy: To investigate the uptake and localization of Pc 4, cells in standard growth medium plus 10% Fetal Bovine Serum (FBS) were loaded with 0.2 μM Pc 4 and incubated for 16 to 18 hr. Thirty minutes prior to imaging Pc 4, 50 nM MitoTracker Red (Invitrogen, Carlsbad, Calif., USA) or 50 μg/mL AlexaFluor 488-conjugated Concanavalin (Con) A (Invitrogen, Carlsbad, Calif., USA) and/or 10 μg/mL Hoechst 33342 (Invitrogen, Carlsbad, Calif., USA) was loaded onto cells. Five to 10 μL of stained cells were placed on a slide with a glass coverslip and all images acquired using an UltraVIEW VoX spinning disk confocal system (PerkinElmer, Waltham, Mass., USA), which was mounted on a Leica DMI6000B microscope (Leica Microsystems, Inc., Bannockburn, Ill., USA) equipped with a HCX PL APO 100×/1.4 oil immersion objective. Confocal images of Pc 4 fluorescence, MitoTracker Red, ConA (or FITC-labeled Annexin V) and Hoechst 33342 were collected using solid-state diode lasers, with 640-nm, 561-nm, 488-nm and 405-nm excitation light, respectively, and with appropriate emission filters.

Row | SMILES | Annexin V positive cells [1] | chromatin condensation [2]
1 | OO [H2O2, hydrogen peroxide, reference compound] | ~27% | detected
2 | CC(=O)O [acetic acid] | ~27% | 
